Source: PubChem BioAssay (NCI)
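Compound exposure: 48 hours, 5 concentrations, 96-well plates. Here, GI50 denotes the concentration required for 50% inhibition of growth. At the TGI there is no net growth.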

Columns and labels:
Test in all cases: inhibition of tumour cell growth, NCI panel, 48 h
MDA-MB-231 breast = tested on: MDA-MB-231 breast
T-47D breast = tested on: T-47D breast
HCT-15 colon = tested on: HCT-15 colon
NCI-H226 lung = tested on: NCI-H226 lung
BT-549 breast = tested on: BT-549 breast
MOLT-4 leukemia = tested on: MOLT-4 leukemia
HT29 colon = tested on: HT29 colon
EKVX NSCLC = tested on: EKVX NSCLC
DU-145 prostate = tested on: DU-145 prostate
A498 renal = tested on: A498 renal
HCC-2998 colon = tested on: HCC-2998 colon
SW-620 colon = tested on: SW-620 colon
A549 NSCLC = tested on: A549 NSCLC
MCF7 breast = tested on: MCF7 breast
OVCAR-4 ovarian = tested on: OVCAR-4 ovarian
OVCAR-3 ovarian = tested on: OVCAR-3 ovarian
RXF 393 renal = tested on: RXF 393 renal
MDA-MB-435 = tested on: MDA-MB-435
NCI-H23 lung = tested on: NCI-H23 lung
ACHN renal = tested on: ACHN renal
SNB-19 CNS = tested on: SNB-19 CNS
OVCAR-8 ovarian = tested on: OVCAR-8 ovarian
MDA-MB-468 breast = tested on: MDA-MB-468 breast
KM12 colon = tested on: KM12 colon
SN12C renal = tested on: SN12C renal
786-0 renal = tested on: 786-0 renal
SF-539 CNS = tested on: SF-539 CNS
LOX IMVI melanoma = tested on: LOX IMVI melanoma
TK-10 renal = tested on: TK-10 renal

Which TGI (MDA-MB-231 breast) does the source give for `Cc1ccc(-c2ccc(SCC(=O)Nc3ccc(Cl)c(C(F)(F)F)c3)nn2)cc1` here?
The TGI was 19.3 µM.

And the GI50 (T-47D breast)?
The GI50 was 0.594 µM.

And the TGI (T-47D breast)?
Its TGI is greater than 100 µM.

And the GI50 (HCT-15 colon)?
Its GI50 is 0.405 µM.

What about the TGI (HCT-15 colon) of the same molecule?
Its TGI is greater than 100 µM.

And the GI50 (NCI-H226 lung)?
The GI50 was 8.36 µM.

What about the TGI (NCI-H226 lung) of the same molecule?
The TGI was greater than 100 µM.

What about the GI50 (BT-549 breast) of the same molecule?
The GI50 was 0.829 µM.

What about the TGI (BT-549 breast) of the same molecule?
The TGI was 46.2 µM.

And the GI50 (MOLT-4 leukemia)?
The GI50 was 0.578 µM.

And the TGI (MOLT-4 leukemia)?
The TGI was greater than 100 µM.

And the GI50 (HT29 colon)?
The GI50 was 0.512 µM.

And the TGI (HT29 colon)?
Its TGI is greater than 100 µM.

And the GI50 (EKVX NSCLC)?
Its GI50 is 2.93 µM.

What about the TGI (EKVX NSCLC) of the same molecule?
Its TGI is greater than 100 µM.

What about the GI50 (DU-145 prostate) of the same molecule?
Its GI50 is 2.37 µM.

And the TGI (DU-145 prostate)?
Its TGI is 17.9 µM.

What about the GI50 (A498 renal) of the same molecule?
The GI50 was 3.75 µM.

What about the TGI (A498 renal) of the same molecule?
The TGI was 38 µM.

And the GI50 (HCC-2998 colon)?
Its GI50 is 1.29 µM.

And the TGI (HCC-2998 colon)?
Its TGI is 10.5 µM.

And the GI50 (SW-620 colon)?
The GI50 was 0.393 µM.

And the TGI (SW-620 colon)?
The TGI was greater than 100 µM.

And the GI50 (A549 NSCLC)?
Its GI50 is 5.34 µM.

And the TGI (A549 NSCLC)?
Its TGI is greater than 100 µM.

And the GI50 (MCF7 breast)?
Its GI50 is 0.563 µM.

And the TGI (MCF7 breast)?
Its TGI is greater than 100 µM.

What about the GI50 (OVCAR-4 ovarian) of the same molecule?
Its GI50 is 5.86 µM.

What about the TGI (OVCAR-4 ovarian) of the same molecule?
The TGI was greater than 100 µM.

What about the GI50 (OVCAR-3 ovarian) of the same molecule?
Its GI50 is 0.409 µM.

And the TGI (OVCAR-3 ovarian)?
Its TGI is 1.94 µM.

And the GI50 (RXF 393 renal)?
Its GI50 is 1.1 µM.

And the TGI (RXF 393 renal)?
The TGI was 5.93 µM.

What about the GI50 (MDA-MB-435) of the same molecule?
The GI50 was 0.22 µM.

What about the TGI (MDA-MB-435) of the same molecule?
Its TGI is 0.513 µM.

What about the GI50 (NCI-H23 lung) of the same molecule?
The GI50 was 2 µM.

What about the TGI (NCI-H23 lung) of the same molecule?
The TGI was 32.7 µM.

And the GI50 (ACHN renal)?
Its GI50 is 6.84 µM.

What about the TGI (ACHN renal) of the same molecule?
The TGI was greater than 100 µM.

And the GI50 (SNB-19 CNS)?
Its GI50 is 3.21 µM.

What about the TGI (SNB-19 CNS) of the same molecule?
Its TGI is 56.6 µM.

What about the GI50 (OVCAR-8 ovarian) of the same molecule?
The GI50 was 2.71 µM.

What about the TGI (OVCAR-8 ovarian) of the same molecule?
The TGI was greater than 100 µM.

What about the GI50 (MDA-MB-468 breast) of the same molecule?
Its GI50 is 0.371 µM.

What about the TGI (MDA-MB-468 breast) of the same molecule?
The TGI was 2.25 µM.

And the GI50 (KM12 colon)?
Its GI50 is 0.732 µM.

And the TGI (KM12 colon)?
The TGI was greater than 100 µM.

What about the GI50 (SN12C renal) of the same molecule?
Its GI50 is 4.85 µM.

What about the TGI (SN12C renal) of the same molecule?
Its TGI is greater than 100 µM.

And the GI50 (786-0 renal)?
Its GI50 is 0.892 µM.

And the TGI (786-0 renal)?
The TGI was 37.7 µM.

What about the GI50 (SF-539 CNS) of the same molecule?
Its GI50 is 0.754 µM.

What about the TGI (SF-539 CNS) of the same molecule?
Its TGI is 3.35 µM.

And the GI50 (LOX IMVI melanoma)?
Its GI50 is 2.48 µM.

And the TGI (LOX IMVI melanoma)?
The TGI was greater than 100 µM.

And the GI50 (TK-10 renal)?
Its GI50 is 12.7 µM.

And the TGI (TK-10 renal)?
Its TGI is 52.8 µM.
